From patent US12122752B1, “5-(2,4,5-tris(4-chlorophenyl)-1H-imidazol-1-yl)pentanoic acid as an antimicrobial compound” (KING FAISAL UNIVERSITY, priority 2023, dated 2024)

Tests used:
Type in all cases: cell-based
[1] = test system: Chrysosporium keratinophilum; experiment: Agar plate disc-diffusion, antifungal activity by inhibition zone; details: Sabouraud's dextrose agar, 72 hours
Procedure: (§1) The agar plate disc-diffusion method was applied. Sterilized filter papers (6 mm in diameter) were wetted with 10 μL of a solution of 5-(2,4,5-tris(4-chlorophenyl)-1H-imidazol-1-yl)pentanoic acid (V) to be tested, containing 10 mg/mL in DMSO, and the discs were allowed to air dry. The discs were then placed onto the surface of agar plates (nutrient agar for bacteria and Sabouraud's dextrose agar for fungi) seeded with the test organism. Each plate contained 15 mL of the agar medium, previously seeded with 0.2 mL of the broth culture of each organism pregrown for 18 hours. The plates were incubated at 37° C. for 48 hours, and 72 hours for fungi. The inhibition zones was measured in mm. Discs impregnated with DMSO were used as a control, and its inhibition zone was subtracted from the tested compound actual inhibition zone.
(§2) Their antibacterial screened against gram positive bacteria namely Bacillus cereus and Staphylococcus aureus and gram-negative bacterial strains namely Pseudomonas aeruginosa and Escherichia coli, while their antifungal activity screened against Aspergillus flavus and Chrysosporium keratinophilum as shown in Table 1 and 2.

Aspergillus flavus = experiment: as above; details: Sabouraud's dextrose agar, 72 hours
Procedure: as §1, §2

Bacillus Cereus = experiment: Agar plate disc-diffusion, antibacterial activity by inhibition zone; details: gram positive, nutrient agar, 37° C., 48 hours
Procedure: as §1, with “Sterilized filter papers (6 mm in diameter) were wetted with 10 μL of a solution of 5-(2,4,5-tris(4-chlorophenyl)-1H-imidazol-1-yl)pentanoic acid (V) to be tested, containing 10 mg/mL in DMSO, and the discs were allowed to air dry.” left out
as §2

Escherichia coli = experiment: as above; details: gram negative, nutrient agar, 37° C., 48 hours
Procedure: as §1, with “Sterilized filter papers (6 mm in diameter) were wetted with 10 μL of a solution of 5-(2,4,5-tris(4-chlorophenyl)-1H-imidazol-1-yl)pentanoic acid (V) to be tested, containing 10 mg/mL in DMSO, and the discs were allowed to air dry.” left out
as §2

Staphylococcus aureus = experiment: as above; details: gram positive, nutrient agar, 37° C., 48 hours
Procedure: as §1, with “Sterilized filter papers (6 mm in diameter) were wetted with 10 μL of a solution of 5-(2,4,5-tris(4-chlorophenyl)-1H-imidazol-1-yl)pentanoic acid (V) to be tested, containing 10 mg/mL in DMSO, and the discs were allowed to air dry.” left out
as §2

Pseudomonas aeruginosa = experiment: as above; details: gram negative, nutrient agar, 37° C., 48 hours
Procedure: as §1, with “Sterilized filter papers (6 mm in diameter) were wetted with 10 μL of a solution of 5-(2,4,5-tris(4-chlorophenyl)-1H-imidazol-1-yl)pentanoic acid (V) to be tested, containing 10 mg/mL in DMSO, and the discs were allowed to air dry.” left out
as §2

different microbes = experiment: Antimicrobial testing, overall statement; details: summary in words of Tables 1 and 2
Procedure: as §1, §2

[2] = A = concentration of comp. = 10,000 μL
[3] = B = concentration of comp. = 30,000 μL
[4] = C = concentration of comp. = 50,000 μL

Row | SMILES | inhibition zone [1, 2] [mm] | inhibition zone [1, 3] [mm] | inhibition zone [1, 4] [mm] | inhibition zone (Aspergillus flavus; [2]) [mm] | inhibition zone (Aspergillus flavus; [3]) [mm] | inhibition zone (Aspergillus flavus; [4]) [mm] | inhibition zone (Bacillus Cereus; [2]) [mm] | inhibition zone (Bacillus Cereus; [3]) [mm] | inhibition zone (Bacillus Cereus; [4]) [mm] | inhibition zone (Escherichia coli; [2]) [mm] | inhibition zone (Escherichia coli; [3]) [mm] | inhibition zone (Escherichia coli; [4]) [mm] | inhibition zone (Staphylococcus aureus; [2]) [mm] | inhibition zone (Staphylococcus aureus; [3]) [mm] | inhibition zone (Staphylococcus aureus; [4]) [mm] | inhibition zone (Pseudomonas aeruginosa; [2]) [mm] | inhibition zone (Pseudomonas aeruginosa; [3]) [mm] | inhibition zone (Pseudomonas aeruginosa; [4]) [mm] | antimicrobials activities against different microbes (different microbes)
1 | O=C(O)c1cn(C2CC2)c2cc(N3CCNCC3)c(F)cc2c1=O [Cip., reference compound] | 29 | 30 | 53 | 29 | 32 | 42 | 29 | 31 | 42 | 30 | 39 | 60 | 42 | 44 | 53 | 29 | 30 | 53 | 
2 | O=C(O)CCCCn1c(-c2ccc(Cl)cc2)nc(-c2ccc(Cl)cc2)c1-c1ccc(Cl)cc1 [V, 5-(2,4,5-tris(4-chlorophenyl)-1H-imidazol-1-yl)pentanoic acid] | 25 | 28 | 46 | 17 | 22 | 31 | 23 | 25 | 37 | 27 | 35 | 50 | 18 | 22 | 33 | 25 | 30 | 43 | excellent
